Test [1] concerns tobacco leaf disks containing SEQ ID No. 7 (Kordia algicida HPPD). Description: Leaf disk regeneration on HPPD inhibitor media. Particulars: 6 weeks. It counts as cell-based, Nicotiana tabacum. How it is done:
(§1) At the end of the experiments the level of regeneration was evaluated as followed:
(§2) “−” means that the leaf disks looked the same as leaf disk from wild type tobacco plants on media supplemented with the inhibitor mentioned above.
(§3) “++++” means that the leaf disks looked like the leaf disks from the wild type tobacco plants on media without inhibitor.
(§4) “+”, “++”, and “+++” indicate regenerated leaf disks were heavily (+), medium (++) and less (+++) affected by the presence of the inhibitors.

Test [2] relates to tobacco leaf disks containing SEQ ID No. 11 (Arabidopsis HPPD). Description: Leaf disk regeneration on HPPD inhibitor media. It counts as cell-based, Nicotiana tabacum. Particulars: 6 weeks. The protocol: as §1, §2, §3, §4
Test [3] deals with Kordia algicida HPPD "SEQ ID No. 5" (Kordia algicida, UniProt A9DQF2). Description: biochemical. Particulars: for inhibition at 5 µM: 5.0 × 10^−6M inhibitor, enzyme SEQ ID No. 5, read-out: percentage of inhibition compared to the activity in absence of the inhibitor; for IC50: read-out: pI50 (converted).
In test [4] the target is Kordia algicida HPPD "SEQ ID No. 5" (FMP27e) (Kordia algicida, UniProt A9DQF2). Description: HPLC assay of HPPD in vitro kinetic properties. It counts as biochemical. Conditions: read-out: Ki. The protocol: Km, Vmax, and kcat values for different HPPD enzyme preparations and Ki, K1=Kon, and K−1=Koff for different HPPD inhibitors were determined using a HPLC assay for measurements of HPPD activity. […] All assays were started by the addition of HPPD enzyme to the assay mixture and stopped at a series of times between 0 and 240 s by addition of 200 μl of the reaction mixture to reaction assay tubes containing 20 μl 10% perchloric acid. Precipitated protein was pelleted by a 5 minute centrifugation at 10,000 g.
For Km and Vmax value determinations the initial rates of the HPPD reaction at different substrate concentrations were determined from plots of HGA formed versus time and fitted to the Michaelis-Menten equation for unireactant enzymes using the ID Business Solutions Ltd. (idbs.com) XLfit software suite.

In test [5] the test system is tobacco plants containing FMP27t-h, PAT and 2mEPSPS (pFCO116). Description: Glasshouse response of three-tolerance-gene tobacco to herbicides, injury classes. The format is in vivo, Nicotiana tobacum. Conditions: 9 DAT. How it is done: A binary vector for tobacco transformation is, for example, constructed with the CaMV35 promoter driving the expression of the gene FMP27t-h (SEQ ID No. 15), with a codon usage optimized for the expression in dicotyledoneous plants and at its 5′extremity was added a sequence coding for an OTP, and further upstream a sequence TEV (Tobacco etch virus) to improve the stability of the mRNA in plants followed by the CaMV35S terminator. The nucleotide sequence of the gene FMP27t-h is given in SEQ ID No. 15. Additionally, the transformation vector also contains a PAT gene cassette in which the gene is driven by a CaVM35S promoter and followed by a CaMV35S terminator for glufosinate based selection during the transformation process and a 2mEPSPS gene cassette in which the gene is driven by an histone promoter from Arabidopsis to confer tolerance to the herbicide glyphosate to the transformed plants (see FIG. 3 H). The binary vector was called pFCO116. The above vector was used to transform leaf disc obtained from Nicotiana tobacum plants, according to Example 3.
Transgenic tobacco plants were transferred to the greenhouse and treated with glyphosate at a rate of 1121 g AI/ha. Seeds were produced from such tolerant tobacco plants and harvested. These seeds were put on soil to germinate in the glasshouse. Three to four weeks later, 50 plantlets per event were transferred to single pots. Two weeks later, plants of a size 4-6 cm were sprayed either with
[…] […] Non-transgenic tobacco plants were completely killed by treatment using one or more of the above herbicides.

Chain of Kordia algicida HPPD "SEQ ID No. 5" (A9DQF2 entry or part of it): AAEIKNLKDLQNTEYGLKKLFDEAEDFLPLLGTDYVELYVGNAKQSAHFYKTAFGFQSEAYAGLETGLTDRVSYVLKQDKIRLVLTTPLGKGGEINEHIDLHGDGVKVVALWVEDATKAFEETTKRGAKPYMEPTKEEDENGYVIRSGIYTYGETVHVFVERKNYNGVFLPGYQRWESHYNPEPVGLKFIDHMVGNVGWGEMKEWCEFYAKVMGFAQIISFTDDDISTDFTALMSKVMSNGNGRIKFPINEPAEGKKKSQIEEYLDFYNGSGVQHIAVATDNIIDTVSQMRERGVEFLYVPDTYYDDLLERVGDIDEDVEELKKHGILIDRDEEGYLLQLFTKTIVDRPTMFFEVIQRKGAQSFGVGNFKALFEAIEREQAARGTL
Chain of Kordia algicida HPPD "SEQ ID No. 5" (FMP27e) (A9DQF2 entry or part of it): as above

What is called inhibition is the change of the read-out against control, counted positive when it falls. By Ki is commonly meant a measure of affinity in units of concentration, obtained from inhibition or displacement. With `CS(=O)(=O)c1cc(C(F)(F)F)ccc1C(=O)C(C#N)C(=O)C1CC1` (centres unmarked) [Diketonitrile, 2-cyano-3-cyclopropyl-1-(2-methylsulphonyl-4-trifluoromethylphenyl)-propane-1,3-dione], the results for the “level of leaf disk regeneration” value in test [1] (diketonitrile 5.10^−6 M) and in test [2] (diketonitrile 5.10^−6 M) were “+” and “−”, respectively. For the same molecule, in test [3], the inhibition at 5 µM is 80%. In addition, the IC50 in test [3] was 2000 nM. In test [4], the inhibitory constant (Ki) worked out at 15000 nM.

With `CS(=O)(=O)c1ccc(C(=O)C2C(=O)CCCC2=O)c([N+](=O)[O-])c1` [Mesotrione, 2-[4-(methylsulfonyl)-2-nitrobenzoyl]-1,3-cyclohexanedione], the “level of leaf disk regeneration” value in test [1] (inhibitor 10^−6 M) is given as “+”; in test [2] (inhibitor 10^−6 M), “−”.

In the case of `O=C(O)CNCP(=O)(O)O` [Glyphosate], in test [5] (1121 g AI/ha, line 639), the “Class I, number of plants (no injuries)” value was found to be 9; the “Class II, number of plants (injury: 10-40%)” value (shortened to “Class II … (injury: 10-40%)”) amounted to 0; the “Class III, number of plants (injury: 41-100%)” value (from here on “Class III … (injury: 41-100%)”) is on record as 1. In test [5] (1121 g AI/ha, line 714), the “Class I, number of plants (no injuries)” value turned out to be 10; the “Class II … (injury: 10-40%)” value amounted to 0; the “Class III … (injury: 41-100%)” value turned out to be 0. Besides, in test [5] (1121 g AI/ha, line 717), the “Class I, number of plants (no injuries)” value was determined as 10; the “Class II … (injury: 10-40%)” value is on record as 0; the “Class III … (injury: 41-100%)” value amounted to 0.

Consider `CS(=O)(=O)c1ccc(C(=O)C2C(=O)CCCC2=O)c(Cl)c1COCC1CCCO1` (centres unmarked) [Tefuryltrione, 2-[2-chloro-4-(methylsulfonyl)-3-[[(tetrahydro-2-furanyl)methoxy]methyl]benzoyl]-1,3-cyclohexanedione], for which, in test [3], the inhibition at 5 µM worked out at 73% and the IC50 is 1580 nM.

Consider `CP(=O)(O)CCC(N)C(=O)O` (centres unmarked) [Glufosinate-ammonium], for which, in test [5] (1000 g AI/ha, line 639), the “Class I, number of plants (no injuries)” value is given as 10; the “Class II … (injury: 10-40%)” value stood at 0; the “Class III … (injury: 41-100%)” value was found to be 0. Besides, in test [5] (1000 g AI/ha, line 714), the “Class I, number of plants (no injuries)” value is 10; the “Class II … (injury: 10-40%)” value was determined as 0; the “Class III … (injury: 41-100%)” value is listed as 0. In test [5] (1000 g AI/ha, line 717), the “Class I, number of plants (no injuries)” value was 10; the “Class II … (injury: 10-40%)” value was found to be 0; the “Class III … (injury: 41-100%)” value was 0.

Consider `Cc1ccc(C(=O)COc2c(C(=O)c3ccc(Cl)c(C)c3Cl)c(C)nn2C)cc1` [Benzofenap], for which, in test [3], the inhibition at 5 µM worked out at 97% and the IC50 was less than 2510 nM.

Source of the values: patent publication US20150159169A1, “Plants Tolerant to HPPD Inhibitor Herbicides” (Bayer CropScience AG, priority 2009, published 2015).
